In PubChem BioAssay (NCI):
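Test compounds were applied to cells in 96-well plates for 48 hours at 5 doses. TGI: total growth inhibition.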

Assays:
Assay in all cases: growth of human tumour cells (NCI), 48 h
SNB-19 CNS = test system: SNB-19 CNS
K-562 leukemia = test system: K-562 leukemia
SW-620 colon = test system: SW-620 colon
UACC-257 melanoma = test system: UACC-257 melanoma
SF-268 CNS = test system: SF-268 CNS
COLO 205 colon = test system: COLO 205 colon
HCT-15 colon = test system: HCT-15 colon
U251 CNS = test system: U251 CNS
NCI-H23 lung = test system: NCI-H23 lung
ACHN renal = test system: ACHN renal
KM20L2 colon = test system: KM20L2 colon
LOX IMVI melanoma = test system: LOX IMVI melanoma
SNB-75 CNS = test system: SNB-75 CNS
786-0 renal = test system: 786-0 renal
HCC-2998 colon = test system: HCC-2998 colon
OVCAR-5 ovarian = test system: OVCAR-5 ovarian
RXF 393 renal = test system: RXF 393 renal
A549 NSCLC = test system: A549 NSCLC
M19-MEL melanoma = test system: M19-MEL melanoma
NCI-H460 lung = test system: NCI-H460 lung
EKVX NSCLC = test system: EKVX NSCLC
KM12 colon = test system: KM12 colon
OVCAR-4 ovarian = test system: OVCAR-4 ovarian
HOP-18 NSCLC = test system: HOP-18 NSCLC
CAKI-1 renal = test system: CAKI-1 renal
TK-10 renal = test system: TK-10 renal
OVCAR-3 ovarian = test system: OVCAR-3 ovarian
HOP-62 NSCLC = test system: HOP-62 NSCLC
SK-MEL-2 melanoma = test system: SK-MEL-2 melanoma
CCRF-CEM leukemia = test system: CCRF-CEM leukemia
M14 melanoma = test system: M14 melanoma
DMS 273 small cell lung = test system: DMS 273 small cell lung
SK-OV-3 ovarian = test system: SK-OV-3 ovarian
RPMI-8226 leukemia = test system: RPMI-8226 leukemia
LXFL 529 NSCLC = test system: LXFL 529 NSCLC
HCT-116 colon = test system: HCT-116 colon
SF-539 CNS = test system: SF-539 CNS
SN12C renal = test system: SN12C renal
MOLT-4 leukemia = test system: MOLT-4 leukemia
UACC-62 melanoma = test system: UACC-62 melanoma
UO-31 renal = test system: UO-31 renal
SF-295 CNS = test system: SF-295 CNS
DLD-1 colon = test system: DLD-1 colon
HT29 colon = test system: HT29 colon
NCI-H522 lung = test system: NCI-H522 lung
SK-MEL-28 melanoma = test system: SK-MEL-28 melanoma
OVCAR-8 ovarian = test system: OVCAR-8 ovarian
NCI-H226 lung = test system: NCI-H226 lung
SNB-78 CNS = test system: SNB-78 CNS
DMS 114 small cell lung = test system: DMS 114 small cell lung
IGROV1 ovarian = test system: IGROV1 ovarian
A498 renal = test system: A498 renal
MALME-3M melanoma = test system: MALME-3M melanoma
HL-60(TB) leukemia = test system: HL-60(TB) leukemia
HOP-92 NSCLC = test system: HOP-92 NSCLC
SK-MEL-5 melanoma = test system: SK-MEL-5 melanoma

Measured: TGI

CC(=O)OC12c3ccccc3C1CCCC21OCCCO1 (configuration not stated)
not listed: HL-60(TB) leukemia | HOP-92 NSCLC | SK-MEL-5 melanoma
> 100 µM: all other assays above

CCC1=C(C(C)=O)[C@@H]2CCCCC(C(=O)OC)[C@@H]2C1=O (some centres not stated)
not listed: LOX IMVI melanoma | OVCAR-3 ovarian
> 100 µM: all other assays above

CCOC(=O)N1CCN(P(=O)(Nc2ccc3nc(NC(=O)OC)[nH]c3c2)Oc2ccccc2)CC1 (configuration not stated)
not listed: SNB-19 CNS | EKVX NSCLC | HOP-62 NSCLC | SF-539 CNS | SF-295 CNS | SK-MEL-5 melanoma
> 100 µM: all other assays above
